Results from the NIST ThermoML archive (doi:10.1016/j.jct.2017.08.004).

How the values were obtained:
[1] = for molar entropy: 101.33 kPa
[2] = Molar enthalpy of transition or fusion; conditions: Crystal; DSC

OC[C@@H](O)C(O)[C@H](O)CO [D-arabitol]
[1]
Conditions	molar entropy [J/K/mol]
1 K, Crystal, relaxation calorimetry	0.0005801
2 K, Crystal, relaxation calorimetry	0.002268
3 K, Crystal, relaxation calorimetry	0.006257
4 K, Crystal, relaxation calorimetry	0.01391
5 K, Crystal, relaxation calorimetry	0.02686
6 K, Crystal, relaxation calorimetry	0.04705
7 K, Crystal, relaxation calorimetry	0.07698
8 K, Crystal, relaxation calorimetry	0.1198
9 K, Crystal, relaxation calorimetry	0.179
10 K, Crystal, relaxation calorimetry	0.2576
15 K, Crystal, relaxation calorimetry	1.012
20 K, Crystal, relaxation calorimetry	2.431
25 K, Crystal, relaxation calorimetry	4.457
30 K, Crystal, relaxation calorimetry	6.97
35 K, Crystal, relaxation calorimetry	9.854
40 K, Crystal, relaxation calorimetry	13.02
45 K, Crystal, relaxation calorimetry	16.41
50 K, Crystal, relaxation calorimetry	19.95
55 K, Crystal, relaxation calorimetry	23.61
60 K, Crystal, relaxation calorimetry	27.36
65 K, Crystal, relaxation calorimetry	31.16
70 K, Crystal, relaxation calorimetry	35.01
75 K, Crystal, relaxation calorimetry	38.9
80 K, Crystal, relaxation calorimetry	42.79
85 K, Crystal, relaxation calorimetry	46.7
90 K, Crystal, relaxation calorimetry	50.61
95 K, Crystal, relaxation calorimetry	54.52
100 K, Crystal, relaxation calorimetry	58.42
110 K, Crystal, relaxation calorimetry	66.18
120 K, Crystal, relaxation calorimetry	73.87
130 K, Crystal, relaxation calorimetry	81.48
140 K, Crystal, relaxation calorimetry	89.01
150 K, Crystal, relaxation calorimetry	96.45
160 K, Crystal, relaxation calorimetry	103.81
170 K, Crystal, relaxation calorimetry	111.08
180 K, Crystal, relaxation calorimetry	118.28
190 K, Crystal, relaxation calorimetry	125.41
200 K, Crystal, relaxation calorimetry	132.48
210 K, Crystal, relaxation calorimetry	139.49
220 K, Crystal, relaxation calorimetry	146.44
230 K, Crystal, relaxation calorimetry	153.36
240 K, Crystal, relaxation calorimetry	160.23
250 K, Crystal, relaxation calorimetry	167.08
260 K, Crystal, relaxation calorimetry	173.89
270 K, Crystal, relaxation calorimetry	180.69
273.15 K, Crystal, relaxation calorimetry	182.82
280 K, Crystal, relaxation calorimetry	187.46
290 K, Crystal, relaxation calorimetry	194.23
298.15 K, Crystal, relaxation calorimetry	199.73
300 K, Crystal, relaxation calorimetry	200.98
305 K, Crystal, Small sample (50 mg) DSC	204.36
310 K, Crystal, Small sample (50 mg) DSC	207.75
315 K, Crystal, Small sample (50 mg) DSC	211.16
320 K, Crystal, Small sample (50 mg) DSC	214.58
325 K, Crystal, Small sample (50 mg) DSC	218.03
330 K, Crystal, Small sample (50 mg) DSC	221.5
335 K, Crystal, Small sample (50 mg) DSC	224.99
340 K, Crystal, Small sample (50 mg) DSC	228.51
345 K, Crystal, Small sample (50 mg) DSC	232.07
350 K, Crystal, Small sample (50 mg) DSC	235.68
355 K, Crystal, Small sample (50 mg) DSC	239.39
360 K, Crystal, Small sample (50 mg) DSC	243.37
365 K, Crystal, Small sample (50 mg) DSC	248.05
390 K, Liquid, Small sample (50 mg) DSC	369.2
395 K, Liquid, Small sample (50 mg) DSC	374.96
400 K, Liquid, Small sample (50 mg) DSC	380.58
405 K, Liquid, Small sample (50 mg) DSC	386.13
410 K, Liquid, Small sample (50 mg) DSC	391.63
415 K, Liquid, Small sample (50 mg) DSC	397.09
420 K, Liquid, Small sample (50 mg) DSC	402.53

Conditions	Normal melting temperature [°C]
[1], Crystal, DTA	99.23

Conditions	Molar enthalpy of transition or fusion [kcal/mol]
[2]	9.46
